Values after ≈ are worked out from the molar mass of the structure shown. Active and inactive are the calls of the source. The rule behind the calls is not given here.
Experiments:
Staphylococcus aureus [1] = assay: Antimicrobial activity against Staphylococcus aureus ATCC 29213; assay type: functional
Staphylococcus aureus [2] = assay: Antimicrobial activity against Staphylococcus aureus ATCC 29213 in presence of 50% human serum; assay type: functional
Rattus norvegicus = assay: Dose normalized AUC in rat at 2.8 to 9.5 mg/kg, iv; assay type: ADME, organism-based; design: dose 2.8-9.5 mg/kg, route intravenous; details: in vivo
Staphylococcus aureus [3] = assay: Antimicrobial activity against Staphylococcus aureus in rat thigh assessed as log reduction of CFU at 30 mg/kg, iv after 8 hrs; assay type: functional
Streptococcus pneumoniae [4] = assay: Antimicrobial activity against Streptococcus pneumoniae; assay type: functional
Streptococcus pneumoniae [5] = assay: Antimicrobial activity against Streptococcus pneumoniae infected in rat lung infection model assessed as log reduction of bacterial density at 30 mg/kg, po; assay type: functional
[6] = Half life in rat at 2.8 to 9.5 mg/kg, iv; assay type: ADME, organism-based; design: dose 2.8-9.5 mg/kg, route intravenous; details: in vivo
Streptococcus pneumoniae [7] = assay: Antimicrobial activity against Streptococcus pneumoniae in presence of 50% human serum; assay type: functional
Streptococcus pneumoniae [8] = assay: Antimicrobial activity against Streptococcus pneumoniae infected in rat lung infection model assessed as log reduction of bacterial density at 3 mg/kg, po; assay type: functional
[9] = Clearance in rat at 2.8 to 9.5 mg/kg, iv; assay type: ADME, organism-based; design: dose 2.8-9.5 mg/kg, route intravenous; details: in vivo
Staphylococcus aureus [10] = assay: Antimicrobial activity against Staphylococcus aureus in rat thigh assessed as log reduction of CFU at 3 mg/kg, iv after 8 hrs; assay type: functional
[11] = Volume of distribution at steady state in rat at 2.8 to 9.5 mg/kg, iv; assay type: ADME, organism-based; design: dose 2.8-9.5 mg/kg, route intravenous; details: in vivo, read-out: Vdss
Staphylococcus aureus [12] = assay: Antimicrobial activity against Staphylococcus aureus in rat thigh assessed as log reduction of CFU at 50 mg/kg, iv after 6 hrs; assay type: functional
Staphylococcus aureus [13] = assay: Antimicrobial activity against Staphylococcus aureus ATCC 29213 infected in Sprague-Dawley rat cyclophosphamide-induced neutropenic sepsis model assessed as host survival at 25 mg/kg, iv administered 1 hr after bacterial infection measured up to 120 hrs; details: ATCC 29213, iv
Streptococcus pneumoniae [14] = assay: Antimicrobial activity against Streptococcus pneumoniae infected in rat lung infection model assessed as log reduction of bacterial density at 38.5 mg/kg, iv; assay type: functional
Staphylococcus aureus [15] = assay: Antimicrobial activity against Staphylococcus aureus at 25 mg/kg, iv

Row | Structure (SMILES) | MIC (Staphylococcus aureus [1]) [µg/mL] | MIC (Staphylococcus aureus [2]) [µg/mL] | AUC/dose (Rattus norvegicus) [µg·h/mL] | MIC (Streptococcus pneumoniae [4]) [µg/mL] | half-life [6] [min] | fold change (FC) (Streptococcus pneumoniae [7]) | clearance [9] [mL/min/kg] | Vd [11] [L/kg] | other results
1 | CCNC(=O)Nc1nc2cc(-c3ccc[n+]([O-])c3)cc(-c3ncccc3F)c2[nH]1 | 0.5 (≈ 1.27 µM) | 0.5 |  |  |  |  |  |  | 
2 | CCNC(=O)Nc1nc2cc(-c3cnc(C(C)(C)O)nc3)cc(-c3ncccc3F)c2[nH]1 | 0.032 (≈ 0.0735 µM) | 0.25 | 0.8 | 0.004 (≈ 0.00919 µM) | 72 | 8 | 23 | 2.1 | FC (Staphylococcus aureus [3]): 2.1; FC (Streptococcus pneumoniae [5]): 5.8; FC (Streptococcus pneumoniae [8]): 3.7; FC (Staphylococcus aureus [10]): 1.7
3 | CCNC(=O)Nc1nc2cc(-c3cccnc3)cc(-c3ncccc3F)c2[nH]1 | 0.031 (≈ 0.0824 µM) | 0.625 | 1.1 | 0.004 (≈ 0.0106 µM) | 42 | 20 | 14 | 1.6 | FC (Staphylococcus aureus [12]): 1.5
4 | CCNC(=O)Nc1nc2cc(-c3ccc(N)nc3)cc(-c3ncccn3)c2[nH]1 | 0.125 (≈ 0.334 µM) | 0.25 |  |  |  |  |  |  | 
5 | CC(=O)NC[C@H]1CN(c2ccc(N3CCOCC3)c(F)c2)C(=O)O1 [LINEZOLID] | 1.56 (≈ 4.62 µM) |  | 1.1 | 0.4 (≈ 1.19 µM) | 42 | 1 | 14.5 | 1 | FC (Staphylococcus aureus [3]): 1.4; survival at 25 mg/kg (Staphylococcus aureus [13]): 30%; FC (Streptococcus pneumoniae [5]): 4.5; FC (Streptococcus pneumoniae [8]): 0.8; Activity (Staphylococcus aureus [10]): inactive
6 | CCNC(=O)Nc1nc2cc(-c3cccnc3)cc(-n3cccn3)c2[nH]1 | 0.125 (≈ 0.36 µM) | 4 |  |  |  |  |  |  | 
7 | CCNC(=O)Nc1nc2cc(-c3ccc(C(N)=O)nc3)cc(-c3ncccn3)c2[nH]1 | 0.064 (≈ 0.159 µM) | 0.25 |  |  |  |  |  |  | 
8 | CCNC(=O)Nc1nc2cc(-c3cccnc3)cc(-c3ccccn3)c2[nH]1 | 0.047 (≈ 0.131 µM) | 2 | 1.6 | 0.004 (≈ 0.0112 µM) | 126 | 43 | 12.5 | 1.1 | survival at 25 mg/kg (Staphylococcus aureus [13]): 20%; FC (Streptococcus pneumoniae [14]): 3; Activity (Staphylococcus aureus [15]): Active
9 | CCNC(=O)Nc1nc2cc(-c3ccc(CN(C)C)nc3)cc(-c3ncccn3)c2[nH]1 | 0.5 (≈ 1.2 µM) | 0.125 |  |  |  |  |  |  | 
10 | CCNC(=O)Nc1nc2cc(-c3cnc4ccccc4c3)cc(-c3ncccn3)c2[nH]1 | 0.032 (≈ 0.0782 µM) | 2 |  |  |  |  |  |  | 
11 | CCNC(=O)Nc1nc2cc(-c3cnc(CN4CCOCC4)nc3)cc(-c3ncccc3F)c2[nH]1 | 0.125 (≈ 0.262 µM) | 0.125 |  |  |  |  |  |  | 

— ChEMBL document CHEMBL3259685, “Successful application of serum shift prediction models to the design of dual targeting inhibitors of bacterial gyrase B and topoisomerase IV with improved in vivo efficacy” (Bioorg Med Chem Lett, 2014)
